Experimental data: patent US20100173835A1, “Peptides for Treatment of Obesity” (Novo Nordisk A/S, priority 2008, published 2010)
Converted amounts (≈) assume the structure as drawn. Read-outs that look alike come from different tables or passages of the source. Values belong to the compound of their own block, whether it stands above or below them. Where a SMILES comes first, the peptide text is derived from it. Bridges are numbered along the chain shown (N, C = ends). [ ]: non-standard residue; d: D form. The star is where a group is joined. Palmitoyl(16-(5-tetrazolyl)) = O=C(CCCCCCCCCCCCCCCc1nnn[nH]1)*; X2 = O=C(CCCCCCCCCCCCCCCc1nnn[nH]1)NS(=O)(=O)CCCC(=O)*; Lys(CH2CO2H)2 = N[C@@H](CCCCN(CC(=O)O)CC(=O)O)C(=O)O; C20 diacid = O=C(O)CCCCCCCCCCCCCCCCCCC(=O)*; C16 diacid = O=C(O)CCCCCCCCCCCCCCC(=O)*; Hyp = O=C(O)[C@@H]1C[C@@H](O)CN1; NTA = O=C(O)CN(CC(=O)O)CC(=O)*; Nle = CCCC[C@H](N)C(=O)O; Dab = NCC[C@H](N)C(=O)O; Dap = NC[C@H](N)C(=O)O; AEEA = NCCOCCOCC(=O)O; βAla = NCCC(=O)O

Tests used:
MC1 receptor = target: T1, MC1 receptor (Homo sapiens, UniProt Q01726); test: Assay (IV) Melanocortin Receptor 1 (MC1) binding assay
T1 construct: expressed in transfected cells
T1 sequence (Q01726 whole entry): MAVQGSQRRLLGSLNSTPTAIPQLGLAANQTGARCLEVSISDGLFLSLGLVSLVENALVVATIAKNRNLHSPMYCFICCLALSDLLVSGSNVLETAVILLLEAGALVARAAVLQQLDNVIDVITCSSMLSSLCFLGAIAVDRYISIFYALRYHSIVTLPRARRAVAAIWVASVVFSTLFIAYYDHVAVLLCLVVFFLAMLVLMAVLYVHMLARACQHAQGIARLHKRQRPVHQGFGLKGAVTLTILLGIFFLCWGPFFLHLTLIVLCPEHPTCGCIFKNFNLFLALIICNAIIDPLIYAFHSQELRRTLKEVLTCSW
Experimental: Assay (IV)—Melanocortin Receptor 1 (MC1) Binding Assay
The MC1 receptor binding assay is performed on BHK cell membranes stably expressing the MC1 receptor. The assay is performed in a total volume of 250 NI: 25 μl of ^125NDP-α-MSH (22 pM in final concentration), 25 μl of test compound/control and 200 μl of cell membrane (25 μg/ml). Test compounds are dissolved in DMSO. Radioactively labeled ligand, membranes and test compounds are diluted in buffer: 25 mM HEPES, pH 7.4, 0.1 mM CaCl2, 1 mM MgSO4, 1 mM EDTA, 0.1% HSA and 0.005% Tween™ 20. Alternatively, HSA may be substituted with ovalbumin. The samples are incubated at 30° C. for 90 min. in Costar round-bottom microtiter plates. Incubation is terminated by filtration on a Packard harvester filtermate. Rapid filtration through Packard Unifilter-96 GF/B filters pre-treated with polyethylenimine (PerkinElmer 6005277). The filters are washed with ice-cold 0.9% NaCl 8-10 times. The plates is air dried at app. 55° C. for 30 min, and 50 μl Microscint 0 (Packard, cat. No. 6013616) is added to each well. The plates are counted in a Topcounter (1 min/well).
(§1) The data are analysed by non-linear regression analysis of binding curves, using the Windows™ program GraphPad™ Prism (GraphPad Software, USA).

human MC4 receptor = target: T2, human MC4 receptor (Homo sapiens, UniProt P32245); test: Assay (V) Melanocortin Receptor 4 (MC4) binding assay; settings: 125NDP-α-MSH binding, BHK cell membranes
T2 construct: expressed in transfected cells
T2 sequence (P32245 whole entry): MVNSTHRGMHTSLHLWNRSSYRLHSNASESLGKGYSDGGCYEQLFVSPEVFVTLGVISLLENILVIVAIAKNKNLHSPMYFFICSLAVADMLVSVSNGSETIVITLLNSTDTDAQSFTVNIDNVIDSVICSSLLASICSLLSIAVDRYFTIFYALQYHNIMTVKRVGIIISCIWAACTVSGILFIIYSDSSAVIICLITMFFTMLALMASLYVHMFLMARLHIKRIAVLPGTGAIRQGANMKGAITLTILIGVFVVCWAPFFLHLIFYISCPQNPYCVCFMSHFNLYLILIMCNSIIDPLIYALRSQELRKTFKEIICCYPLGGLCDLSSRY
Experimental: Assay (V)—Melanocortin Receptor 4 (MC4) Binding Assay
In vitro ^125NDP-α-MSH binding to recombinant BHK cells expressing human MC4 receptor (filtration assay).
The assay is performed in 5 ml minisorb vials (Sarstedt No. 55.526) or in 96-well filterplates (Millipore MADVN 6550), and using BHK cells expressing the human MC4 receptor using BHK cells stably expressing the human MC4 receptor. The membranes were prepared from frozen or fresh cells that were homogenized in 20 mM HEPES pH 7.1, 5 mM MgCl2 and 1 mg/ml bacitracin and centrifuged at 15000 rpm at 4° C., 10 min in a Sorvall RC 5B plus, SS-34 rotor. The supernatant was discarded, and the pellets were re-suspended in buffer, homogenized and centrifuged two more times. The final pellets were resuspended in the buffer mentioned above, and the protein concentration was measured and adjusted with buffer to 14 to 17 mg/ml and the membrane preparation were kept at −80° C. until assay. The assay was run directly on a dilution of this cell membrane suspension, without any further preparation. The BHK cell membranes are kept at −80° C. until assay, and the assay is run directly on a dilution of this cell membrane suspension, without further preparation. The suspension is diluted to give maximally 10% specific binding, i.e. to approx. 50-100 fold dilution. The assay is performed in a total volume of 200 μl: 50 μl of cell suspension, 50 μl of ^125NDP-α-MSH (≈79 pM in final concentration), 50 μl of test compound and 50 μl binding buffer (pH 7) mixed and incubated for 2 h at 25° C. [binding buffer: 25 mM HEPES, pH 7.0, 1 mM CaCl2, 1 mM MgSO4, 1 mM EGTA, 0.02% Bacitracin, 0.005% Tween™ 20 and 0.1% HSA or, alternatively, 0.1% ovalbumin (Sigma; catalogue No. A-5503)]. Test compounds are dissolved in DMSO and diluted in binding buffer. Radiolabelled ligand and membranes are diluted in binding buffer. The incubation is stopped by dilution with 2×100 μl ice-cold 0.9% NaCl. The radioactivity retained on the filters is counted using a Cobra II auto gamma counter.
as §1

[1] = Solubility data of compounds in water over the pH range; assay type: physicochemical; settings: read-out: Conc (solubility in water)
[2] = 125NDP-α-MSH binding, BHK cell membranes, read-out: Assay (IV) MC1 Ki

SMILES: CCCC[C@H](NC(=O)[C@H](CCNC(=O)CN(CC(=O)O)CC(=O)O)NC(=O)[C@H](Cc1c[nH]cn1)NC(=O)[C@H](CCC(N)=O)NC(=O)[C@H](CO)NC(=O)CNC(=O)COCCOCCNC(=O)CCCCCCCCCCCCCCCc1nnn[nH]1)C(=O)N[C@H]1CCC(=O)NCCCC[C@@H](C(N)=O)NC(=O)[C@H](Cc2c[nH]c3ccccc23)NC(=O)[C@H](CCCNC(=N)N)NC(=O)[C@@H](Cc2ccccc2)NC(=O)[C@@H]2C[C@@H](O)CN2C1=O [Example 10, (2-{2-[16-(Tetrazol-5-yl)hexadecanoylamino]ethoxy}ethoxy)acetyl-Gly-Ser-Gln-His-Dab(BCMA)-Nle-c[Glu-Hyp-D-Phe-Arg-Trp-Lys]-NH2] ({Palmitoyl(16-(5-tetrazolyl))-AEEA}-GSQH[Dab](NTA)[Nle]E[Hyp][dF]RWK-NH2; lactam 7-12)
Ki (MC1 receptor; [2]): > 10000 nM
Ki (human MC4 receptor; read-out: Assay (V) MC4 [Ki]): 1.05 nM

SMILES: CCCC[C@H](NC(=O)[C@H](CNC(=O)CN(CC(=O)O)CC(=O)O)NC(=O)[C@H](Cc1ccc(O)cc1)NC(=O)[C@H](CCC(N)=O)NC(=O)[C@H](CO)NC(=O)CNC(=O)COCCOCCNC(=O)CCCCCCCCCCCCCCCc1nnn[nH]1)C(=O)N[C@H]1CCC(=O)NCCCC[C@@H](C(N)=O)NC(=O)[C@H](Cc2c[nH]c3ccccc23)NC(=O)[C@H](CCCNC(=N)N)NC(=O)[C@@H](Cc2ccccc2)NC(=O)[C@@H]2C[C@@H](O)CN2C1=O [Example 19, (2-{2-[16-(Tetrazol-5-yl)hexadecanoylamino]ethoxy}ethoxy)acetyl-Gly-Ser-Gln-Tyr-Dap(BCMA)-Nle-c[Glu-Hyp-D-Phe-Arg-Trp-Lys]-NH2] ({Palmitoyl(16-(5-tetrazolyl))-AEEA}-GSQY[Dap](NTA)[Nle]E[Hyp][dF]RWK-NH2; lactam 7-12)
Ki (MC1 receptor; [2]): > 10000 nM
Ki (human MC4 receptor; read-out: Assay (V) MC4 [Ki]): 3.9 nM

SMILES: CCCC[C@H](NC(=O)[C@H](CNC(=O)CN(CC(=O)O)CC(=O)O)NC(=O)[C@H](Cc1cnc[nH]1)NC(=O)[C@H](CCC(N)=O)NC(=O)[C@H](CO)NC(=O)CNC(=O)COCCOCCNC(=O)CCCCCCCCCCCCCCCc1nnn[nH]1)C(=O)N[C@H]1CCC(=O)NCCCC[C@@H](C(N)=O)NC(=O)[C@H](Cc2c[nH]c3ccccc23)NC(=O)[C@H](CCCN=C(N)N)NC(=O)[C@@H](Cc2ccccc2)NC(=O)[C@@H]2C[C@@H](O)CN2C1=O [Example 9, (2-{2-[16-(Tetrazol-5-yl)hexadecanoylamino]ethoxy}ethoxy)acetyl-Gly-Ser-Gln-His-Dap(BCMA)-Nle-c[Glu-Hyp-D-Phe-Arg-Trp-Lys]-NH2] ({Palmitoyl(16-(5-tetrazolyl))-AEEA}-GSQH[Dap](NTA)[Nle]E[Hyp][dF]RWK-NH2; lactam 7-12)
Ki (MC1 receptor): 2670 nM
Ki (human MC4 receptor; Assay (V) MC4 [Ki] (nM)): 0.58 nM

SMILES: CCCC[C@H](NC(=O)CCNC(=O)[C@H](CCCCN(CC(=O)O)CC(=O)O)NC(=O)[C@H](Cc1c[nH]cn1)NC(=O)[C@H](CCC(N)=O)NC(=O)[C@H](CO)NC(=O)[C@H](CO)NC(=O)[C@H](CCC(N)=O)NC(=O)[C@@H](CO)NC(=O)CNC(=O)COCCOCCNC(=O)COCCOCCNC(=O)CCCCCCCCCCCCCCCCCCC(=O)O)C(=O)N[C@H]1CCC(=O)NCCCC[C@@H](C(N)=O)NC(=O)[C@H](Cc2c[nH]c3ccccc23)NC(=O)[C@H](CCCNC(=N)N)NC(=O)[C@@H](Cc2ccccc2)NC(=O)[C@@H]2C[C@@H](O)CN2C1=O [Example 22, {2-[2-(2-{2-[2-(19-Carboxynonadecanoylamino)ethoxy]ethoxy}acetylamino)ethoxy]ethoxy}acetyl-Gly-D-Ser-Gln-Ser-Ser-Gln-His-Lys(biscarboxymethyl)β-Ala-Nle-c[Glu-Hyp-D-Phe-Arg-Trp-Lys]-NH2] ({C20 diacid-AEEA-AEEA}-G[dS]QSSQH[Lys(CH2CO2H)2][βAla][Nle]E[Hyp][dF]RWK-NH2; lactam 11-16)
Ki (MC1 receptor): > 10000 nM
Ki (human MC4 receptor; Assay (V) MC4 [Ki] (nM)): 0.55 nM

Ki (MC1 receptor; [2]): > 10000 nM
Ki (human MC4 receptor; read-out: Assay (V) MC4 [Ki]): 3.6 nM
SMILES: CCCC[C@H](NC(=O)[C@H](CNC(=O)CN(CC(=O)O)CC(=O)O)NC(=O)[C@H](Cc1c[nH]cn1)NC(=O)[C@H](CCC(N)=O)NC(=O)[C@H](CO)NC(=O)CNC(=O)COCCOCCNC(=O)CCCCCCCCCCCCCCC(=O)O)C(=O)N[C@H]1CCC(=O)NCCCC[C@@H](C(N)=O)NC(=O)[C@H](Cc2c[nH]c3ccccc23)NC(=O)[C@H](CCCNC(=N)N)NC(=O)[C@@H](Cc2ccccc2)NC(=O)[C@@H]2C[C@@H](O)CN2C1=O [Example 13, {2-[2-(15-Carboxypentadecanoylamino)ethoxy]ethoxy}acetyl-Gly-Ser-Gln-His-Dap(BCMA)-Nle-c[Glu-Hyp-D-Phe-Arg-Trp-Lys]-NH2] ({C16 diacid-AEEA}-GSQH[Dap](NTA)[Nle]E[Hyp][dF]RWK-NH2; lactam 7-12)

SMILES: CCCC[C@H](NC(=O)[C@H](CNC(=O)CN(CC(=O)O)CC(=O)O)NC(=O)[C@H](Cc1c[nH]cn1)NC(=O)[C@H](CCC(N)=O)NC(=O)[C@H](CO)NC(=O)CNC(=O)COCCOCCNC(=O)CCCS(=O)(=O)NC(=O)CCCCCCCCCCCCCCCc1nnn[nH]1)C(=O)N[C@H]1CCC(=O)NCCCC[C@@H](C(N)=O)NC(=O)[C@H](Cc2c[nH]c3ccccc23)NC(=O)[C@H](CCCNC(=N)N)NC(=O)[C@@H](Cc2ccccc2)NC(=O)[C@@H]2C[C@@H](O)CN2C1=O [Example 11, [2-(2-{4-[16-(Tetrazol-5-yl)hexadecanoylsulfamoyl]butanoylamino}ethoxy)ethoxy]acetyl-Gly-Ser-Gln-His-Dap(BCMA)-Nle-c[Glu-Hyp-D-Phe-Arg-Trp-Lys]-NH2] ({X2-AEEA}-GSQH[Dap](NTA)[Nle]E[Hyp][dF]RWK-NH2; lactam 7-12)
Ki (MC1 receptor): 9700 nM
Ki (human MC4 receptor; Assay (V) MC4 [Ki] (nM)): 3.25 nM

SMILES: CCCC[C@H](NC(=O)[C@H](CCCCN(CC(=O)O)CC(=O)O)NC(=O)CCNC(=O)[C@H](Cc1c[nH]cn1)NC(=O)[C@H](CCC(N)=O)NC(=O)[C@H](CO)NC(=O)[C@H](CO)NC(=O)[C@H](CCC(N)=O)NC(=O)[C@@H](CO)NC(=O)CNC(=O)COCCOCCNC(=O)COCCOCCNC(=O)CCCCCCCCCCCCCCCc1nnn[nH]1)C(=O)N[C@H]1CCC(=O)NCCCC[C@@H](C(N)=O)NC(=O)[C@H](Cc2c[nH]c3ccccc23)NC(=O)[C@H](CCCNC(=N)N)NC(=O)[C@@H](Cc2ccccc2)NC(=O)[C@@H]2C[C@@H](O)CN2C1=O [Example 12, (2-{2-[2-(2-{2-[16-(Tetrazol-5-yl)hexadecanoylamino]ethoxy}ethoxy)acetylamino]ethoxy}ethoxy)acetyl-Gly-D-Ser-Gln-Ser-Ser-Gln-His-β-Ala-Lys(biscarboxymethyl)-Nle-c[Glu-Hyp-D-Phe-Arg-Trp-Lys]-NH2] ({Palmitoyl(16-(5-tetrazolyl))-AEEA-AEEA}-G[dS]QSSQH[βAla][Lys(CH2CO2H)2][Nle]E[Hyp][dF]RWK-NH2; lactam 11-16)
Ki (human MC4 receptor; Assay (V) MC4 [Ki] (nM)): 2.85 nM
solubility at 3 days ([1]; pH 3.1, pH 3.10): 409 µM (≈ 1060 µg/mL)
solubility at 3 days ([1]; pH 4.11, pH 4.11): 374 µM (≈ 971 µg/mL)
solubility at 3 days ([1]; pH 4.69, pH 4.69): 395 µM (≈ 1030 µg/mL)
solubility at 3 days ([1]; pH 4.82, pH 4.82): 268 µM (≈ 696 µg/mL)
solubility at 3 days ([1]; pH 5.07, pH 5.07): 136 µM (≈ 353 µg/mL)
solubility at 3 days ([1]; pH 5.56, pH 5.56): 43 µM (≈ 112 µg/mL)
solubility at 3 days ([1]; pH 6.71, pH 6.71): 58 µM (≈ 151 µg/mL)
solubility at 3 days ([1]; pH 6.71): 87 µM (≈ 226 µg/mL)
solubility at 3 days ([1]; pH 6.99): 119 µM (≈ 309 µg/mL)
solubility at 3 days ([1]; pH 7.15, pH 7.15): 210 µM (≈ 545 µg/mL)
solubility at 3 days ([1]; pH 7.72, pH 7.72): 256 µM (≈ 665 µg/mL)
